Measured values taken from patent publication US20130089629A1, “KIT FOR THE TREATMENT OF ONYCHOMYCOSIS BY NITRIC OXIDE” (TOPICAL PHARMA AB, priority 2010, published 2013).

Tested on: skin surrounding the finger nail and the nail itself
Test: Acidifying effect of salicylic acid paste in a fingerstall on skin and finger nail
Format: in vivo
Conditions: paste 2% w/w in fingerstall, about 12 hours, vs empty fingerstall
Description: In a study designed to investigate the acidifying effect on the skin surrounding the finger nail as well as the nail itself a paste comprising salicylic acid at 2% w/w was inserted in a fingerstall. The fingerstall was applied over the top of the finger covering it tightly for about 12 hours. A completely empty stall covering another finger served as control for the same time period
Upon scratching the nail surface with a sharp metal edge device, nail fragments (keratinized cells) were easily released in contrast to the nail at the finger covered with an empty fingerstall where the nail plate surface was hard.

For `O=C(O)c1ccccc1O` [salicylic acid], the “appearance of the skin after exposure” value was “softening and loosening up of the skin” and the “effect on the nail plate surface” value was “loosened up the superficial outer nail plate layer”.
